Assays:
Assay in all cases: biochemical
Assay type in all cases: binding
panel of 442 kinases [1] = molecular target: T1, panel of 442 kinases (Homo sapiens, UniProt Q96L34); conditions: kinase MARK4; for remaining activity at 1 µM: read-out: % of control at 1 µM
T1 construct: purchased Ambit Biosciences (scanMAXX KINOMEscan)
T1 sequence (Q96L34 1-752): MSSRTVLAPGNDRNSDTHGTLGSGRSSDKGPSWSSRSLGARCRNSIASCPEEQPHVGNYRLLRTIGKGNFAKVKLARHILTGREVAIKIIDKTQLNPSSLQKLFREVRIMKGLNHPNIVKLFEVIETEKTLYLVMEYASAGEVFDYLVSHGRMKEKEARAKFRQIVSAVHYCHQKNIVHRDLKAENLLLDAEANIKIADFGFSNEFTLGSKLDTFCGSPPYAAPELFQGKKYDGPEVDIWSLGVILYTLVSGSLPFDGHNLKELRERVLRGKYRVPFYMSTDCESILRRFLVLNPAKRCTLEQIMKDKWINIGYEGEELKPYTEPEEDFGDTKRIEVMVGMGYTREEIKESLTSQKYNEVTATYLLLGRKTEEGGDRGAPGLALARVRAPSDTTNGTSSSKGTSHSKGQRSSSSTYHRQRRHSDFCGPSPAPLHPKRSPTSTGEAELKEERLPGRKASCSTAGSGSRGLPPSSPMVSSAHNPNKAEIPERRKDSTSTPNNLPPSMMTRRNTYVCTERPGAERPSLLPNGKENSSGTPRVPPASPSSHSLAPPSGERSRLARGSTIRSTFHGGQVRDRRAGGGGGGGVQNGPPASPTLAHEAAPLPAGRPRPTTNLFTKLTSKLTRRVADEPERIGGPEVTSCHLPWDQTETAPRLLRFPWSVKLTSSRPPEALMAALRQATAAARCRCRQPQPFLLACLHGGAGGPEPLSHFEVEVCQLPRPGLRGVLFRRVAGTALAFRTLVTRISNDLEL

panel of 442 kinases [2] = molecular target: T2, panel of 442 kinases (Homo sapiens, UniProt Q13043); conditions: kinase MST1; for remaining activity at 1 µM: read-out: % of control at 1 µM
T2 construct: purchased Ambit Biosciences (scanMAXX KINOMEscan)
T2 sequence (Q13043 1-487): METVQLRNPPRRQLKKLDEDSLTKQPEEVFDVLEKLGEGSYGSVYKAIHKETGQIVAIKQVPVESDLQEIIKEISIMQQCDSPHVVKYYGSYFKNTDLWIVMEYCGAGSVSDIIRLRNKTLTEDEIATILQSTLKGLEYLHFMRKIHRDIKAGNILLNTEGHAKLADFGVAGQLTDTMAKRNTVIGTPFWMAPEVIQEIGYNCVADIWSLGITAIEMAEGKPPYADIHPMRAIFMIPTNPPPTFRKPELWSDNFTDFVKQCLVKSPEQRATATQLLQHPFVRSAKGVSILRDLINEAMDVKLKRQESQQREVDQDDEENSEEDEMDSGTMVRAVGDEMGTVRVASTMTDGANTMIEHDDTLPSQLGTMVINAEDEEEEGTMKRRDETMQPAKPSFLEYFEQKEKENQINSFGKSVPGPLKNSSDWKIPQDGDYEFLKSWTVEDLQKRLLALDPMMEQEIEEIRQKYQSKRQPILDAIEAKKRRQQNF

panel of 442 kinases [3] = molecular target: T3, panel of 442 kinases (Homo sapiens, UniProt Q9NRM7); conditions: kinase LATS2; for remaining activity at 1 µM: read-out: % of control at 1 µM
T3 construct: purchased Ambit Biosciences (scanMAXX KINOMEscan)
T3 sequence (Q9NRM7 1-1088): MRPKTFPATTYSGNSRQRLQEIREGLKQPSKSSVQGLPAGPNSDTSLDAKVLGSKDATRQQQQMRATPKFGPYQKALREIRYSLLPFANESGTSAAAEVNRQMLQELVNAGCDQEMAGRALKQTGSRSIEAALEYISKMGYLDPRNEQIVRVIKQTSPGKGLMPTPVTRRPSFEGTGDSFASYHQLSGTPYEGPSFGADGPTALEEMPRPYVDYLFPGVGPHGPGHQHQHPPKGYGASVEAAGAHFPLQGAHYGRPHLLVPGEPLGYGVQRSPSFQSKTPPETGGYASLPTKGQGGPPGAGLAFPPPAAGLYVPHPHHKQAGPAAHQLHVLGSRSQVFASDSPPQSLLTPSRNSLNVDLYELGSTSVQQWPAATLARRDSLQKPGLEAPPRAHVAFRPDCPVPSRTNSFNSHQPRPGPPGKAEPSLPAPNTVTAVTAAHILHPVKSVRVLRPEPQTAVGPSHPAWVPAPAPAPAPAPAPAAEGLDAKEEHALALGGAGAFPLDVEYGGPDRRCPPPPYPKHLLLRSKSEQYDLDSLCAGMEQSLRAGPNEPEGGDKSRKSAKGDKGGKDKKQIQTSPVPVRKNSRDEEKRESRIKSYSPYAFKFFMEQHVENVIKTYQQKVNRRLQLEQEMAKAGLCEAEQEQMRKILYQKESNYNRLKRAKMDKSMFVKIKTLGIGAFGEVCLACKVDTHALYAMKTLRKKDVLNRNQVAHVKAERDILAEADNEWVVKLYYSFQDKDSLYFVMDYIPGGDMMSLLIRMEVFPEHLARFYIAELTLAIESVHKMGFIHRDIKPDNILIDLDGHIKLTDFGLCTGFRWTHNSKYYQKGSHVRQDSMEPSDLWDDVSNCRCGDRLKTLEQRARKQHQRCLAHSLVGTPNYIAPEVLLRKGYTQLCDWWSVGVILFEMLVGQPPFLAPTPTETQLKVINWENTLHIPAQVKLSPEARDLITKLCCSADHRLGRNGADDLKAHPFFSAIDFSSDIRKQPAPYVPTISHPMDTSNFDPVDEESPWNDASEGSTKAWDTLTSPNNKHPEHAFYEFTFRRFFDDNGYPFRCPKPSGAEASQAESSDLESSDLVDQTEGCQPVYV

[4] = 10 µM, read-out: % of control at 10 µM

Row | Compound | remaining activity at 1 µM (panel of 442 kinases [1]) [%] | remaining activity at 10 µM (panel of 442 kinases [1]; [4]) [%] | remaining activity at 1 µM (panel of 442 kinases [2]) [%] | remaining activity at 10 µM (panel of 442 kinases [2]; [4]) [%] | remaining activity at 1 µM (panel of 442 kinases [3]) [%] | remaining activity at 10 µM (panel of 442 kinases [3]; [4]) [%]
1 | Nc1cc(C(F)(F)F)c(-c2cc(N3CCOCC3)nc(N3CCOCC3)n2)cn1 [Buparlisib] | 100 | 91 | 95 | 100 | 75 | 100
2 | Cn1c(=O)n(-c2ccc(C(C)(C)C#N)cc2)c2c3cc(-c4cnc5ccccc5c4)ccc3ncc21 [Dactolisib, 2-methyl-2-[4-(3-methyl-2-oxo-8-quinolin-3-yl-2,3-dihydroimidazo[4,5-c]quinolin-1-yl)-phenyl] propionitrile] | 61 | – | 66 | – | 100 | –
3 | COc1ncc(-c2ccc3nccc(-c4ccnnc4)c3c2)cc1NS(=O)(=O)c1ccc(F)cc1F [Omipalisib] | 83 | – | 100 | – | 100 | –
4 | FC(F)c1nc2ccccc2n1-c1nc(N2CCOCC2)nc(N2CCOCC2)n1 [ZSTK474, 2-(difluoromethyl)-1-[4,6-di(4-morpholinyl)-1,3,5-triazin-2-yl]-1H-benzimidazole] | 100 | – | 53 | – | 100 | –
